Measurements published in patent publication US12064471B2, “Compositions comprising sulforaphane or a sulforaphane precursor and a mushroom extract or powder” (NUTRAMAX LABORATORIES, INC., priority 2012, dated 2024).

Legend:
myrosinase [1] = test: Conversion of glucoraphanin to sulforaphane in Simulated Intestinal Fluid (Example 5); type: biochemical, broccoli; conditions: 0.25 to 1.00 mmol/Liter ascorbic acid, 38° C., 2 hours
Protocol: Simulated Intestinal Fluid (SIF) powder, a commercially supplied concentrate closely approximating the human intestinal content in terms of composition, pH and ionic strength, was used. The experiment utilized a USP Dissolution Apparatus 2 (paddles), where into six dissolution vessels 500 mL of Simulated Intestinal Fluid was dispensed, along with 150 mg of freeze-dried broccoli sprout powder as a source of myrosinase. […] Aliquots were withdrawn every 15 minutes and assayed for sulforaphane.

myrosinase [2] = test: Conversion of glucoraphanin to sulforaphane by myrosinase, HPLC (Example 4); type: biochemical; conditions: Part 2, 250 mg broccoli seed extract
Protocol: A two-part experiment was conducted to further elucidate the role of ascorbic acid in modulating myrosinase activity. […] A control sample contained no ascorbic acid, and the enzymatic conversion proceeded unassisted by a co-factor. PART 1. […] PART 2. While keeping the amount of broccoli seed extract fixed at 250 mg, the concentration of ascorbic acid was varied from 0.4 mmol/Liter to 3.8 mmol/Liter.

Ascorbic acid concentration up to which myrosinase-promoted conversion increases apparently linearly, followed by leveling off (myrosinase [2]): about 2 mmol/L
SMILES: O=C1O[C@H]([C@@H](O)CO)C(O)=C1O [Ascorbic Acid, Ascorbic acid]
Sulforaphane yield versus ascorbic acid concentration (myrosinase [1]): direct correlation between larger yield of sulforaphane and higher concentrations of ascorbic acid
